Data on 30 compounds can be found in patent US9101628B2, “Methods and composition of treating a flaviviridae family viral infection” (The Board of Trustees of the Leland Stanford Junior …, priority 2007, dated 2015).

Entries after “also recorded” stand apart in the source; their conditions may differ. Structures can show the parent of a compound that is named as a salt. Where two headings read alike, the source gives them in different places.

For one data set, the target named is T1, HuR (Homo sapiens, UniProt Q15717).
T1 construct: The open reading frames (ORF) of HuR and HuD were obtained from the ORFeome library of cDNA clones (Open biosystems); V5-his (C); made in house; host or cells: cell-free expression on the microfluidic device, from pcDNA-Dest 40 carrying the ORFeome clone (Open Biosystems)
T1 sequence (Q15717 whole entry): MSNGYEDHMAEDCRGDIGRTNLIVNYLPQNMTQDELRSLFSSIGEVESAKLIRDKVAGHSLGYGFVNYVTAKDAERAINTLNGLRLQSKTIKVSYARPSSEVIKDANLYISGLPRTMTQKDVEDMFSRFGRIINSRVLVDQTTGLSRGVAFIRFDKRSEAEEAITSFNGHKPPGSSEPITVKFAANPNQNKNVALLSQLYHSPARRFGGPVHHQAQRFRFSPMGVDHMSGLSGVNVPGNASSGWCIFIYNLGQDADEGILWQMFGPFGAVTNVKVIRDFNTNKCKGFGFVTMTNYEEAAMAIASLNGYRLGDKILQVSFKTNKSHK
As to the kind of experiment: HuR RNA binding by microfluidics (specificity of hits). The following applies: 0.1 mM. The procedure: Specificity of hits identified in the small molecule screen: To determine the specificity of the hits identified in the small molecule screen, the HuR protein (one of the human RNA binding protein used to validate our RNA binding assay) was selected. […] Binding of HuR to the consensus 4A RNA sequence was tested in the presence of the inhibitory molecules shown to inhibit RNA binding by NS4B. […] Similarly, 0.1 mM of the identified compounds didn't have an inhibitory effect on binding of HuR to the 3′ terminus of the negative HCV RNA strand.

The subject of the next data set is Huh7.5 cells. As to the kind of experiment: Alamar Blue-based cell viability assay. More on the design: species or system human. The procedure: (§1) Total volume per well is 100 μl.
(§2) (or until there is a color change).

The test system of data set [1] is full-length J6/JFH (genotype 2a) HCV RNA genome. As to the kind of experiment: microbe, parasite or virus in culture. The following applies: for EC50: Hepatitis C virus, Huh7.5, 72 h, read-out: EC50 HCV replication, genotype 2a luciferase reporter, Huh7.5 cells, 72 hr. The format is cell-based. The procedure: In such assays, luciferase activity is directly proportional to HCV RNA genome replication.
The in vivo antiviral effect on HCV RNA replication of the inhibitory compounds identified in the above screen was measured. Following electroporation with a full-length HCV RNA genome harboring a luciferase reporter gene, Huh7.5 cells were grown in the presence of increasing concentrations of these compounds. Luciferase assays were performed at 72 hr. In parallel, the viability of cells in the presence of the compounds was assessed by an Alamar Blue-based assay.
Huh-7.5 cells were maintained in Dulbecco's modified minimal essential medium (Gibco) supplemented with 1% L-glutamine (Gibco), 1% penicillin, 1% streptomycin (Gibco), 1× nonessential amino acids (Gibco) and 10% fetal bovine serum (Omega Scientific). Cell lines were passaged twice weekly after treatment with 0.05% trypsin-0.02% EDTA and seeding at a dilution of 1:5. Subconfluent Huh-7.5 cells were trypsinized and collected by centrifugation at 700 g for 5 min. The cells were then washed three times in ice-cold RNase-free PBS (BioWhittaker) and resuspended at 1.5*10^7 cells/ml in PBS. Wild type or mutant FL-J6/JFH-5′C19Rluc2AUbi RNA for electroporation was generated by in vitro transcription of XbaI-linearized DNA templates using the T7 MEGAscript kit (Ambion), followed by purification, essentially as described above (In vitro RNA transcription and fluorescent labeling). 5 μg of RNA was mixed with 400 μl of washed Huh-7.5 cells in a 2 mm-gap cuvette (BTX) and immediately pulsed (0.82 kV, five 99 μs pulses) with a BTX-830 electroporator. After a 10 min recovery at 25° C., pulsed cells were diluted into 10 ml of prewarmed growth medium. Cells from several electroporations were pooled to a common a stock and seeded in 6 well plates (5*10^5 cells per well). After 24 hr, medium was replaced and cells were grown in the presence of serial dilutions of the various inhibitory compounds (Sigma) identified in the screen. […] Untreated cells were used as a negative control for water soluble compounds. For compounds solubilized in DMSO, untreated cells were grown in the presence of corresponding concentrations of the solvent as a negative control. Medium was changed daily. After 72 hr of treatment, cells were subjected to an alamar blue based viability assay and luciferase assay.
The experiment was repeated four times, each time with triplicates.
Following electroporation with a full-length J6/JFH (genotype 2a) HCV RNA genome harboring a luciferase reporter gene, Huh7.5 cells were grown in the presence of various concentrations of the individual compounds and their combinations. Luciferase assays were performed at 72 hr.

The test system of the next data set is HCV RNA replication. As to the kind of experiment: RNA replication inhibition assay (luciferase reporter-linked HCV genome). The following applies: Hepatitis C virus, percentage of untreated control population; for activity at 5 µM: read-out: Residual Luciferase activity, 5 micromolar; for activity at 10 µM: read-out: Residual Luciferase activity, 10 micromolar.

The target in the next data set is hERG channel (Homo sapiens, UniProt Q12809). As to the kind of experiment: HERG channel assay (whole cell recordings, CHO cell line expressing hERG).
Chain of hERG channel (Q12809 whole entry): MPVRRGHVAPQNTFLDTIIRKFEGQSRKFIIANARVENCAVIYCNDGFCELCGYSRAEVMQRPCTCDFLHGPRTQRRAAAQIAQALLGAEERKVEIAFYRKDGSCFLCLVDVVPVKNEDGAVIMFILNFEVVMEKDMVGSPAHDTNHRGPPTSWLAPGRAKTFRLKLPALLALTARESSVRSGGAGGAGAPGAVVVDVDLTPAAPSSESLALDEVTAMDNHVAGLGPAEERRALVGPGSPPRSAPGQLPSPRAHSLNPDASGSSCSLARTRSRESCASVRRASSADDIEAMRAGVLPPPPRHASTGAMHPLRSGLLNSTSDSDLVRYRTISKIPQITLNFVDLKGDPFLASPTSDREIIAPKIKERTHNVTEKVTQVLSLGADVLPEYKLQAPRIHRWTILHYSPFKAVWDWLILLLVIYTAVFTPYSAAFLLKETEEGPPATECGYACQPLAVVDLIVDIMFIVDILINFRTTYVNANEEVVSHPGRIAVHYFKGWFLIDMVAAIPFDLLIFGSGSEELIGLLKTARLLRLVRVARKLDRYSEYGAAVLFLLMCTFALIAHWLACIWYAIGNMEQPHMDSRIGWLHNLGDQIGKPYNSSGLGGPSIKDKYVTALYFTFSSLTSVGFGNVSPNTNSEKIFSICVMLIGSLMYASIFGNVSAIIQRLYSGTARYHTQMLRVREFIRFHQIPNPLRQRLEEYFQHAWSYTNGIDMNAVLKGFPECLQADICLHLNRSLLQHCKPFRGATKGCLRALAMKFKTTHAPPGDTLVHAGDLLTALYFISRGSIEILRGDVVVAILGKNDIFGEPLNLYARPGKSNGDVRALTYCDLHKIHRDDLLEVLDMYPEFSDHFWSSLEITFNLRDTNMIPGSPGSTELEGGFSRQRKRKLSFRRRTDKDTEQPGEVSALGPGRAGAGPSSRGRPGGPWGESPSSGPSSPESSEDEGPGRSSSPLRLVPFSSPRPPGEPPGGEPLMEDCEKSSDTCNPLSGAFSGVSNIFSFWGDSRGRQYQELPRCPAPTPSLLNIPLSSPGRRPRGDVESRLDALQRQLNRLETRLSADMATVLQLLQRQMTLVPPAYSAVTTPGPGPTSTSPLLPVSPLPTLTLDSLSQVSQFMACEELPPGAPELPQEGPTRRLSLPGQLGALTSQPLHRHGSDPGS
In another data set the test system is HCV. The following applies: cited from earlier work.
Data set [2] is described as follows: Alamar Blue-based cell viability assay. More on the design: species or system human. The following applies: human, Huh7.5 cells; genotype 2a experiments; Alamar Blue-based and CellTiter-Blue assay. The procedure:
as §1, §2

Data set [3] has as its system subgenomic Bart 79I HCV RNA replicon (genotype 1b). As to the kind of experiment: microbe, parasite or virus in culture. Type of data set: cell-based. The following applies: Hepatitis C virus; genotype 1b luciferase reporter, 72 hr; read-out: EC50 HCV replication.
Description: Huh7.5 cells were electroporated with a subgenomic Bart 79I HCV RNA replicon harboring a luciferase reporter gene, and grown in the presence of increasing concentrations of the individual compounds or their combinations. As described above, luciferase assays and Alamar Blue-based viability assays were performed at 72 hr.
The subject of data set [4] is replicon harboring the A156T mutation. As to the kind of experiment: Whole cell RNA electroporation, SCH503034 resistant clone. The format is cell-based, HCV.
In data set [5] the test system is replicon harboring the W55R mutation. As to the kind of experiment: Whole cell RNA electroporation, clemizole resistant clone. The following applies: 10 μM clemizole; 2.5 μM SCH503034. Type of data set: cell-based, HCV. The procedure:
Whole cell RNA was extracted from clemizole-resistant replicon clones and from untreated replicon cells using TRIzol reagent (Invitrogen). Equal amounts of whole cell RNA (50 μg) were electroporated into Huh7.5 cells as described above. Cells were grown under G418 selection in the presence or absence of clemizole for 3 weeks. The number of colonies was determined using Image J (NIH) following fixation and staining with Crystal violet.
Cells transfected with whole cell RNA extracted from wild type replicon cells were sensitive to both drugs.

Description for hERG channel: Test articles in this study were therefore characterized to determine their ability to inhibit the hERG channel. Ion channel activity was measured using a stably transfected Chinese Hamster Ovary (CHO) cell line expressing the hERG mRNA.
AVIVA's CHO cell line, which stably expresses hERG channels, was used for the study. Cells were cultured in DMEM/F12 containing 10% FBS, 1% penicillin/streptomycin and 500 μg/ml G418. Before testing, cells were harvested using Accumax (Innovative Cell Technologies).
Whole cell recordings were-performed using PX 7000A (Axon Instruments) with VIVA's SealChip™ technology. Cells were voltage clamped at a holding potential of −80 mV. The hERG current was then activated by a depolarizing step to −50 mV for 300 ms. This first step at −50 mV was used as a baseline for measuring peak amplitude of the tail current. Next, a voltage step to +20 mV was applied for 5 s to activate the channels. Finally a step back to −50 mV for 5 seconds removed activation and the deactivating tail current was recorded.
All compounds were prepared from either 10 or 30 mM DMSO stock solutions. Solutions were mixed by sonication for 20 min, followed by vigorous vortexing. Prior to testing, compounds were diluted to test concentrations in glass vials using External Solution. Dilutions were prepared no longer than 20 min prior to use. Equal amounts of DMSO (0.1%) were present in all final dilutions.
After achieving whole cell configuration, cells were monitored for 90 s to assess stability and then washed with External Solution for 66 s. The voltage protocol described above was then applied to the cells every 12 s throughout the procedure. Only stable cells with recording parameters above threshold (see Quality Control section) were allowed to enter the drug addition procedure. External solution containing 0.1% DMSO (vehicle) was applied to the cells to establish a baseline. After allowing the current to stabilize for 3 to 5 min, test articles were applied. Test article solutions were added to cells in 4 separate additions. […]

As to `O=C(O)C1=CC(=C(c2ccc(O)c(C(=O)O)c2)c2ccc(O)c(C(=O)O)c2)C=CC1=O` [ATA], at HuR, the “effect on binding of HuR to 4A RNA sequence” value is recorded as “affected; also recorded: significantly inhibited” and the “effect on binding of HuR to the 3′ terminus of the negative HCV RNA strand” value is “significantly inhibited”.

As to `Clc1ccc(Cn2c(CN3CCCC3)nc3ccccc32)cc1` [Clemizole hydrochloride, clemizole hydrochloride], the cellular toxicity entry in the data set on Huh7.5 cells (at antiviral concentrations, Alamar Blue, 72 hr, hydrochloride) was “no measurable cellular toxicity”; with Huh7.5 cells (human, 72 h), “little toxicity”. In data set [1] (20 μM, 72 hr), the “decrease in viral replication” value is “tenfold”.

On to `COC(=O)c1ccc(Cn2cnc3ccccc32)cc1` [Compound 139], for which, in the data set with HCV RNA replication, the activity at 5 µM is less than 80% and the activity at 10 µM is less than 55%.

Take `COc1ccc(Cn2cnc3ccccc32)cc1OC` [Compound 140]: in the data set on HCV RNA replication, the activity at 5 µM was less than 20% and the activity at 10 µM was less than 55%.

For the compound `CC(C)(C)c1ccc(Cn2cnc3ccccc32)cc1` [Compound 141], in the data set with HCV RNA replication, the activity at 5 µM was less than 55% and the activity at 10 µM was less than 20%.

On to `Cc1ccc(Cn2cnc3ccccc32)cc1` [Compound 142], for which the activity at 10 µM with HCV RNA replication was less than 55%.

With `Oc1ccc(Cn2cnc3ccccc32)cc1` [Compound 143], in the data set with HCV RNA replication, the activity at 5 µM was more than 80% and the activity at 10 µM is less than 80%.

`COc1ccc(Cn2cnc3ccccc32)cc1` [Compound 144]: in the data set with HCV RNA replication, the activity at 5 µM is less than 55% and the activity at 10 µM was less than 55%.

Regarding `Cc1cc2nc(/C=C/c3ccccc3)n(Cc3ccc(Cl)cc3)c2cc1C` [Compound 145], in the data set with HCV RNA replication, the activity at 5 µM was less than 80% and the activity at 10 µM is less than 20%.

`Cc1cc2c(ncn2Cc2ccccc2)c(N)c1C` [Compound 146]: in the data set with HCV RNA replication, the activity at 5 µM is less than 80% and the activity at 10 µM was less than 80%.

`COc1ccc(Cn2c(C)nc3c(N)c(C)c(C)cc32)cc1` [Compound 147]: in the data set with HCV RNA replication, the activity at 5 µM was less than 80% and the activity at 10 µM is less than 80%.

On to `CS(=O)(=O)c1ccc2c(c1)ncn2Cc1ccccc1` [Compound 149], for which, in the data set with HCV RNA replication, the activity at 5 µM is more than 80% and the activity at 10 µM is more than 80%.

Turning to `CS(=O)(=O)c1ccc2c(c1)nc(C(F)(F)F)n2Cc1ccccc1` [Compound 150], in the data set with HCV RNA replication, the activity at 5 µM was less than 80% and the activity at 10 µM was less than 55%.

As to `CCOC(=O)Cc1nc2cc(S(C)(=O)=O)ccc2n1Cc1ccccc1` [Compound 151], in the data set on HCV RNA replication, the activity at 5 µM was less than 80% and the activity at 10 µM was less than 55%.

For the compound `CS(=O)(=O)c1ccc2c(c1)nc(S)n2Cc1ccccc1` [Compound 152], in the data set on HCV RNA replication, the activity at 5 µM is less than 80% and the activity at 10 µM was less than 55%.

Regarding `CCOC(=O)CSc1nc2cc(S(C)(=O)=O)ccc2n1Cc1ccccc1` [Compound 153], in the data set with HCV RNA replication, the activity at 5 µM is more than 80% and the activity at 10 µM is less than 80%.

`Cc1cc2ncn(Cc3cc(Cl)cc4c3OCCO4)c2cc1C` [Compound 154]: in the data set on HCV RNA replication, the activity at 5 µM is less than 80% and the activity at 10 µM is less than 55%.

On to `Cc1ccc(Cn2c(C)nc3cc(C)c(C)cc32)cc1` [Compound 155], for which, in the data set with HCV RNA replication, the activity at 5 µM was less than 55% and the activity at 10 µM is less than 20%.

Consider `Cc1cc2nc(CN3CCCC3)n(Cc3ccc(Cl)cc3)c2cc1C` [Compound 156], for which, in the data set with HCV RNA replication, the activity at 5 µM is less than 80% and the activity at 10 µM was less than 55%.

In the case of `Clc1ccc(Cn2c(CN3CCCC3)nc3cc(Cl)c(Cl)cc32)cc1` [Compound 157], in the data set on HCV RNA replication, the activity at 5 µM was less than 80% and the activity at 10 µM was less than 55%.

For the compound `Cc1cc2nc(-c3ccc[nH]c3=O)n(Cc3ccc(Cl)cc3)c2cc1C` [Compound 158], in the data set on HCV RNA replication, the activity at 5 µM is less than 80% and the activity at 10 µM is less than 80%.

`Cc1cc2nc(-c3ccc(=O)[nH]c3)n(Cc3ccc(Cl)cc3)c2cc1C` [Compound 159]: in the data set with HCV RNA replication, the activity at 5 µM is less than 80% and the activity at 10 µM was less than 55%.

Regarding `COC(=O)c1ccc(Cn2c(/C=C/c3ccccc3)nc3cc(C)c(C)cc32)cc1` [Compound 160], in the data set on HCV RNA replication, the activity at 5 µM was less than 80% and the activity at 10 µM is less than 20%.

As for `COC(=O)c1ccc(Cn2cnc3ccncc32)cc1` [Compound 161], in the data set with HCV RNA replication, the activity at 5 µM was more than 80% and the activity at 10 µM was more than 80%.

Regarding `O=c1ccc(-c2nc3cc(Cl)c(Cl)cc3n2Cc2ccc(Cl)c(Cl)c2)c[nH]1` [Compound 167], the IC50 on hERG channel (read-out: HERG IC50, CHO cell line stably expressing hERG) was more than 1000 nM.

In the case of `Cc1ccc2c(c1)nc(CN1CCCCC1)n2Cc1ccc(Cl)cc1` [Compound 184], at hERG channel (human, CHO cells stably expressing hERG), the IC50 is more than 1000 nM.

As to `CNC(=O)c1c(-c2ccc(F)cc2)oc2cc(N(CCO)S(C)(=O)=O)c(C3CC3)cc12` [HCV 796, HCV-796], the EC50 in the data set on HCV (read-out: EC50 reported value) is 17 nM; in data set [1], 68 ± 8 nM.

Take `CC(C)[C@H](N)C(=O)O[C@@H]1[C@@H](CO)O[C@@H](n2ccc(N)nc2=O)[C@]1(C)O` [NM283, valopicitabine]: the EC50 in data set [1] is 1160 ± 200 nM.

In data set [2], `CC(C)(C)NC(=O)N[C@H](C(=O)N1C[C@H]2[C@@H]([C@H]1C(=O)NC(CC1CCC1)C(=O)C(N)=O)C2(C)C)C(C)(C)C` (stereo partly drawn) [SCH503034, boceprevir] registered a 50% cytotoxic concentration (CC50) at 72 h of more than 100000 nM. The compound further registered a half-maximal cytotoxic concentration (CC50) with Huh7.5 cells (genotype 1b experiments, Alamar Blue, 72 hr) of more than 100000 nM. The EC50 in data set [3] is approximately 210 nM; in data set [1], 800 nM. For the same compound, the “sensitivity of Huh7.5 cells transfected with whole cell RNA from A156T clone” value in data set [4] is listed as “decreased sensitivity”. Besides, the “sensitivity of Huh7.5 cells transfected with whole cell RNA from W55R clone” value in data set [5] is “remained sensitive”. In addition, the “decrease of viral replication” value in [1] (SCH503034 alone at 2.5 μM) is approximately 1 log. Also, the “viral replication relative to 1, untreated” value in data set [1] (SCH503034 alone at 2.5 μM) was 0.08.

For `CCC[C@H](NC(=O)[C@@H]1[C@H]2CCC[C@H]2CN1C(=O)[C@@H](NC(=O)[C@@H](NC(=O)c1cnccn1)C1CCCCC1)C(C)(C)C)C(=O)C(=O)NC1CC1` [VX-950, telaprevir], the 50% effective concentration (EC50) with HCV (different assay and 1b genotype, read-out: EC50 reported by others) is 354 to 560 nM; in [1], approximately 300 nM.
